Test results from PubChem BioAssay AID330 (DTP/NCI, 2004).
Where “and” joins values, the source holds several entries; their conditions need not be identical. Equal values may be shown once. Toxic doses and inconclusive results are not listed. Peptide text beside a SMILES is read from it. * marks the point of attachment. Cbz = O=C(OCc1ccccc1)*

System: P388 leukemia ip, CD2F1 mice, survival T/C
Assay: NCI In Vivo Anticancer Drug Screen. Data for tumor model P388 Leukemia (intraperitoneal) in CD2F1 (CDF1) mice
Settings: endpoint: median survival time, higher = longer survival
How it was run: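 Mice carrying the transplanted tumor received test compound or vehicle. Survival was recorded in each group, and the value is the treated-group measurement divided by that of the vehicle-treated control group.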

[1] = dose: 50.0 mg/kg/injection, schedule: Q01DX009 (ip), vehicle: saline with Tween-80
[2] = dose: 100.0 mg/kg/injection, schedule: Q01DX009 (ip), vehicle: saline with Tween-80
[3] = dose: 50.0 mg/kg/injection, schedule: Q01DX005 (ip), vehicle: Klucel (hydroxypropylcellulose) (HPC)
[4] = dose: 100.0 mg/kg/injection, schedule: Q01DX005 (ip), vehicle: Klucel (hydroxypropylcellulose) (HPC)
[5] = dose: 200.0 mg/kg/injection, schedule: Q01DX005 (ip), vehicle: Klucel (hydroxypropylcellulose) (HPC)
[6] = dose: 25.0 mg/kg/injection, schedule: Q01DX009 (ip), vehicle: saline
[7] = dose: 50.0 mg/kg/injection, schedule: Q01DX009 (ip), vehicle: saline
[8] = dose: 50.0 mg/kg/injection, schedule: Q01DX009 (ip), vehicle: Klucel (hydroxypropylcellulose) (HPC)
[9] = dose: 100.0 mg/kg/injection, schedule: Q01DX009 (ip), vehicle: Klucel (hydroxypropylcellulose) (HPC)
[10] = dose: 12.5 mg/kg/injection, schedule: Q01DX009 (ip), vehicle: saline with Tween-80
[11] = dose: 25.0 mg/kg/injection, schedule: Q01DX009 (ip), vehicle: saline with Tween-80
[12] = dose: 60.0 mg/kg/injection, schedule: Q01DX005 (ip), vehicle: Klucel (hydroxypropylcellulose) (HPC)
[13] = dose: 120.0 mg/kg/injection, schedule: Q01DX005 (ip), vehicle: Klucel (hydroxypropylcellulose) (HPC)
[14] = dose: 240.0 mg/kg/injection, schedule: Q01DX005 (ip), vehicle: Klucel (hydroxypropylcellulose) (HPC)

CC1(C)C=Cc2c(O)c(C(=O)/C=C/c3ccccc3)c3c(c2O1)C=CC(C)(C)O3
T/C (dose: 5.25 mg/kg/injection, schedule: Q01DX005 (ip), vehicle: Klucel (hydroxypropylcellulose) (HPC)): 100 % of control | T/C (dose: 10.5 mg/kg/injection, schedule: Q01DX005 (ip), vehicle: Klucel (hydroxypropylcellulose) (HPC)): 95 % of control | T/C (dose: 21.0 mg/kg/injection, schedule: Q01DX005 (ip), vehicle: Klucel (hydroxypropylcellulose) (HPC)): 97 % of control | T/C (dose: 42.0 mg/kg/injection, schedule: Q01DX005 (ip), vehicle: Klucel (hydroxypropylcellulose) (HPC)): 86 % of control

CCCCCCC(=O)/C=C/c1ccc(OC)c(OC)c1
T/C [1]: 107 % of control | T/C [2]: 114 % of control | T/C (dose: 200.0 mg/kg/injection, schedule: Q01DX009 (ip), vehicle: saline with Tween-80): 115 % of control

CNCC(=O)NC(CO)C(=O)NC(CO)C(=O)NC1C(C(N)=O)OC(n2ccc(N)nc2=O)C(O)C1O (centres undefined)
T/C (dose: 0.1 mg/kg/injection, schedule: Q01DX009 (ip), vehicle: water): 101 % of control | T/C (dose: 0.2 mg/kg/injection, schedule: Q01DX009 (ip), vehicle: water): 100 % of control | T/C (dose: 0.4 mg/kg/injection, schedule: Q01DX009 (ip), vehicle: water): 117 % of control | T/C (dose: 0.8 mg/kg/injection, schedule: Q01DX009 (ip), vehicle: water): 95 % of control

O=C(NCCN1CCN2Cc3[nH]c4ccccc4c3CC2C1)c1ccc([N+](=O)[O-])cc1 (centres undefined)
T/C (dose: 100.0 mg/kg/injection, schedule: Q04DX002 (ip), vehicle: saline with Tween-80): 96 % of control | T/C (dose: 200.0 mg/kg/injection, schedule: Q04DX002 (ip), vehicle: saline with Tween-80): 87 % of control | T/C (dose: 400.0 mg/kg/injection, schedule: Q04DX002 (ip), vehicle: saline with Tween-80): 86 % of control

CCCCCCCCCCCCOCC(O)Cn1cnc2c(N)ncnc21 (centres undefined)
T/C [3]: 98 % of control | T/C [4]: 94 % of control | T/C [5]: 94 % of control

O=S(=O)(O)c1ccc2cccc(N=Nc3c(O)ccc4ccccc34)c2c1
T/C (dose: 12.5 mg/kg/injection, schedule: Q01DX009 (ip), vehicle: saline): 104 % of control | T/C [6]: 101 % of control | T/C [7]: 93 % of control

CS(=O)(=O)OCC(COS(C)(=O)=O)(COS(C)(=O)=O)COS(C)(=O)=O
T/C [8]: 93 % of control | T/C [9]: 99 % of control | T/C (dose: 200.0 mg/kg/injection, schedule: Q01DX009 (ip), vehicle: Klucel (hydroxypropylcellulose) (HPC)): 94 % of control

O=C(NC(Cc1ccccc1)C(=O)NC(Cc1ccc(O)cc1)C(=O)O)OCc1ccccc1 (stereo not drawn) (Cbz-Phe-Tyr-OH; configuration not given here)
T/C (dose: 50.0 mg/kg/injection, schedule: Q01DX005 (ip), vehicle: saline + Tween-80 + alcohol): 97 % of control | T/C (dose: 100.0 mg/kg/injection, schedule: Q01DX005 (ip), vehicle: saline + Tween-80 + alcohol): 95 % of control | T/C (dose: 200.0 mg/kg/injection, schedule: Q01DX005 (ip), vehicle: saline + Tween-80 + alcohol): 96 % of control

CN(N=O)C(N)=O
T/C (dose: 5.0 mg/kg/injection, schedule: Q04DX003 (ip), vehicle: saline with Tween-80): 104 % of control | T/C (dose: 10.0 mg/kg/injection, schedule: Q04DX003 (ip), vehicle: saline with Tween-80): 119 % of control | T/C [10]: 159 % of control | T/C [11]: 95 % of control | T/C (dose: 25.0 mg/kg/injection, schedule: Q04DX003 (ip), vehicle: saline with Tween-80): 177 % of control | T/C (dose: 37.5 mg/kg/injection, schedule: Q04DX003 (ip), vehicle: saline with Tween-80): 172 % of control | T/C (dose: 50.0 mg/kg/injection, schedule: Q04DX003 (ip), vehicle: saline with Tween-80): 113 % of control

O=[N+]([O-])c1c(O)c(CNCCCO)cc(CNCCCO)c1O
T/C [6]: 113 % of control | T/C [7]: 116 % of control

COc1cc(C[C@@H]2COC(=O)[C@]2(O)Cc2ccc(O)c(OC)c2)ccc1O
T/C (dose: 1.25 mg/kg/injection, schedule: Q01DX009 (ip), vehicle: alcohol): 100 % of control | T/C (dose: 2.5 mg/kg/injection, schedule: Q01DX009 (ip), vehicle: alcohol): 113 % of control | T/C (dose: 5.0 mg/kg/injection, schedule: Q01DX009 (ip), vehicle: alcohol): 104 % of control | T/C (dose: 8.0 mg/kg/injection, schedule: Q01DX009 (ip), vehicle: saline + alcohol): 124 % of control | T/C (dose: 16.0 mg/kg/injection, schedule: Q01DX009 (ip), vehicle: saline + alcohol): 154 % of control

CCOc1n[nH]c(-c2ccc(Cl)cc2Cl)n1
T/C (dose: 100.0 mg/kg/injection, schedule: Q01DX001 (ip), vehicle: Klucel (hydroxypropylcellulose) (HPC)): 102 % of control | T/C (dose: 200.0 mg/kg/injection, schedule: Q01DX001 (ip), vehicle: Klucel (hydroxypropylcellulose) (HPC)): 100 % of control | T/C (dose: 400.0 mg/kg/injection, schedule: Q01DX001 (ip), vehicle: Klucel (hydroxypropylcellulose) (HPC)): 101 % of control

COP(=O)(CC(=O)CCCCCO[Si](C)(C)C(C)(C)C)OC
T/C (dose: 60.0 mg/kg/injection, schedule: Q01DX005 (ip), vehicle: saline): 98 % of control | T/C (dose: 120.0 mg/kg/injection, schedule: Q01DX005 (ip), vehicle: saline): 99 % of control | T/C (dose: 240.0 mg/kg/injection, schedule: Q01DX005 (ip), vehicle: saline): 100 % of control

O=c1c(Cl)c2cc3c(cc2c2ccccc12)nc1ccccc1n3-c1ccccc1
T/C (dose: 400.0 mg/kg/injection, schedule: Q01DX001 (ip), vehicle: saline with Tween-80): 89 % of control

CN1CCC(CO)C1 (centres undefined)
T/C (dose: 12.5 mg/kg/injection, schedule: Q01DX009 (ip), vehicle: water): 91 % of control | T/C (dose: 25.0 mg/kg/injection, schedule: Q01DX009 (ip), vehicle: water): 91 % of control | T/C (dose: 50.0 mg/kg/injection, schedule: Q01DX009 (ip), vehicle: water): 91 % of control

CCOC(=O)CCC1=C(C)c2cc3[nH]c(cc4[nH]c(cc5nc(cc1n2)C(CCC(=O)OCC)=C5C)c(C1CC1C(=O)OCC)c4C)c(C1CC1C(=O)OCC)c3C (centres undefined)
T/C [3]: 102 % of control | T/C [4]: 100 % of control | T/C [5]: 101 % of control

COCCO[Si](OCCOC)(OCCOC)OCCOC
T/C [8]: 99 % of control | T/C [9]: 87 % of control

C/C=C(\C)C(=O)OCc1c2c(c(OC)c3occ(C)c13)C=CCC2C (centres undefined)
T/C (dose: 5.5 mg/kg/injection, schedule: Q01DX009 (ip), vehicle: Klucel (hydroxypropylcellulose) (HPC)): 94 % of control | T/C (dose: 11.0 mg/kg/injection, schedule: Q01DX009 (ip), vehicle: Klucel (hydroxypropylcellulose) (HPC)): 100 % of control | T/C (dose: 22.0 mg/kg/injection, schedule: Q01DX009 (ip), vehicle: Klucel (hydroxypropylcellulose) (HPC)): 100 % of control | T/C (dose: 44.0 mg/kg/injection, schedule: Q01DX009 (ip), vehicle: Klucel (hydroxypropylcellulose) (HPC)): 104 % of control

O=C(N/N=C/c1ccccn1)c1ccccc1
T/C [12]: 102 % of control | T/C [13]: 97 % of control | T/C [14]: 100 % of control

O=c1[nH]c2cc(Cl)ccc2nc1/C=C(\O)c1ccccn1
T/C [12]: 92 % of control | T/C [13]: 91 % of control | T/C [14]: 93 % of control

CCOCN(COCC)c1ccccn1
T/C [11]: 100 % of control | T/C [1]: 105 % of control and 116 % of control

O=C1CSC(=Nc2ccccc2F)N1c1ccccc1F
T/C [8]: 110 % of control | T/C [9]: 107 % of control

O=c1c2oc3ccccc3c2cnn1CO
T/C [10]: 103 % of control and 97 % of control | T/C [11]: 100 % of control and 105 % of control | T/C [1]: 102 % of control and 108 % of control | T/C [2]: 105 % of control and 117 % of control

COc1cc(C2c3cc4c(cc3OC3(N5CCCC5)CCCCC23)OCO4)cc(OC)c1OC (centres undefined)
T/C [12]: 99 % of control | T/C [13]: 93 % of control | T/C [14]: 96 % of control

c1ccc(-c2cnc3cccnc3n2)cc1
T/C [12]: 100 % of control | T/C [13]: 99 % of control

CS(=O)(=O)C(=Cc1ccccc1Cl)S(C)(=O)=O
T/C (dose: 50.0 mg/kg/injection, schedule: Q04DX003 (ip), vehicle: Klucel (hydroxypropylcellulose) (HPC)): 102 % of control | T/C (dose: 100.0 mg/kg/injection, schedule: Q04DX003 (ip), vehicle: Klucel (hydroxypropylcellulose) (HPC)): 107 % of control | T/C (dose: 200.0 mg/kg/injection, schedule: Q04DX003 (ip), vehicle: Klucel (hydroxypropylcellulose) (HPC)): 108 % of control

N#CC(=C1N=c2ccccc2=N1)c1[nH]c(O)c2ccccc12
T/C (dose: 6.25 mg/kg/injection, schedule: Q01DX009 (ip), vehicle: saline with Tween-80): 93 % of control | T/C [10]: 91 % of control | T/C [11]: 94 % of control
